What was measured:
H460 (human NSCLC) cells = assay: Cell uptake of F-18 labeled tracer in H460 cells; assay type: cell-based; conditions: 0.25 MBq, 60 min incubation, PBS 0.1% BSA
Experimental: FIG. 4: Time dependent uptake of (2S)-2-amino-5-[3-[^18F]fluoropropyl]hexanedioic acid was determined. H460 cells were incubated with 0.25 MBq (2S)-2-amino-5-[3-[^18F]fluoropropyl]hexanedioic acid for up to 60 min and the cell-bound fraction was determined after 10, 20, 30 and 60 min)
Cell uptake & Retention of (2S)-2-amino-5-[3-[^18F]fluoropropyl]hexanedioic acid—For determination of the biological activity of (2S)-2-amino-5-[3-[^18F]fluoropropyl]hexanedioic acid, the F-18 labeled compound was used as tracer in a cell uptake experiment using H460 (human NSCLC) cells. Approximately 100.000 cells were incubated with 0.25 MBq (2S)-2-amino-5-[3-[^18F]fluoropropyl]hexanedioic acid for up to 60 minutes in PBS-buffer containing 0.1% BSA and the cell-bound fraction was determined. A time-dependent uptake was observed during the 60 min incubation period. Approximately 20% of applied dose was taken up by the cells during the 60 min incubation period (FIG. 4).

H460 tumor cells = assay: Retention of activity in H460 tumor cells under efflux conditions; assay type: cell-based, human; conditions: H460 cells loaded 30 min, then 30 min incubation in new buffer (efflux conditions)
Experimental: FIG. 5: Retention of (2S)-2-amino-5-[3-[^18F]fluoropropyl]hexanedioic acid in H460 tumor cells. H460 cells were loaded with 0.25 MBq (2S)-2-amino-5-[3-[^18F]fluoropropyl]hexanedioic acid for 30 min in PBS/BSA. After washing, the cells were incubated with new buffer (without radioactivity) for additional 10, 20, 30 min. The release of radioactivity into the supernatant as well as the retention inside the cells was determined.
In a second experiment, the retention of activity in tumor cells was examined. H460 cells were loaded with 0.25 MBq (2S)-2-amino-5-[3-[^18F]fluoropropyl]hexanedioic acid for 30 minutes in PBS/BSA-buffer. After this uptake, the buffer was removed and the cells were washed with PBS. The cells were then incubated with new PBS-buffer (without activity) for up to 30 min. The release of activity into the supernatant as well as the retention of activity inside the cells was examined. It was discovered, that more than 80% of activity were retained in the tumor cells after 30 min incubation under these efflux conditions (see FIG. 5).

N[C@@H](CCC(CCC[18F])C(=O)O)C(=O)O (stereo partly drawn) [(2S)-2-amino-5-[3-[^18F]fluoropropyl]hexanedioic acid]
cell uptake (cell-bound fraction) (H460 (human NSCLC) cells): Approximately 20 % of applied dose
activity retained in the tumor cells (H460 tumor cells): more than 80%
